According to PubChem BioAssay AID200 (DTP/NCI, 2004):
Values joined by “and” are separate entries in the source; they are usually repeats but may differ in a detail not shown here. Equal entries are not always repeated. Toxic doses and inconclusive results are not listed. *1 amine or outer side, *2 acyl side, *3 side chain or, on linkers, in order; H or OH if unused. Where a SMILES comes first, the peptide text is derived from it. [ ]: non-standard residue; d: D form. The star is where a group is joined. X3 = CCC(=O)CC1CC(C)CC(C(=O)[*:2])N1[*:1]; X2 = CCCCCCCCC(C)C(=O)*; Cbz = O=C(OCc1ccccc1)*; Nva = CCC[CH](N)C(=O)O; Aib = CC(C)(N)C(=O)O; X4 = CC(CN(C)CCO)N*

Tested on: B6C3F1 mice, B16 melanoma ip, median survival T/C
Test: NCI In Vivo Anticancer Drug Screen. Data for tumor model B16 Melanoma (intraperitoneal) in B6C3F1 mice
Conditions: endpoint: median survival time, schedule: Q01DX009 (ip), higher = longer survival
Outline: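 Mice bearing transplanted tumor were dosed with compound or vehicle, and survival was recorded. Activity is expressed as the treated-group measurement (T) divided by the vehicle control measurement (C).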

[1] = dose: 25.0 mg/kg/injection, vehicle: saline with Tween-80
[2] = dose: 50.0 mg/kg/injection, vehicle: saline with Tween-80
[3] = dose: 100.0 mg/kg/injection, vehicle: Klucel (hydroxypropylcellulose) (HPC)
[4] = dose: 200.0 mg/kg/injection, vehicle: Klucel (hydroxypropylcellulose) (HPC)
[5] = dose: 25.0 mg/kg/injection, vehicle: saline
[6] = dose: 50.0 mg/kg/injection, vehicle: saline
[7] = dose: 100.0 mg/kg/injection, vehicle: saline
[8] = dose: 6.25 mg/kg/injection, vehicle: saline with Tween-80
[9] = dose: 6.25 mg/kg/injection, vehicle: saline
[10] = dose: 12.5 mg/kg/injection, vehicle: saline with Tween-80
[11] = dose: 12.5 mg/kg/injection, vehicle: saline

With `CC(=O)O[C@H]1C(=O)[C@@]2(C)C(C(OC(=O)c3ccccc3)[C@]3(O)C[C@H](OC(=O)C(OC(=O)CCCC(=O)NCCCN(C)C)C(NC(=O)c4ccccc4)c4ccccc4)C(C)=C1C3(C)C)C1(OC(C)=O)COC1C[C@@H]2O` (stereo not given in full) the T/C (dose: 10.0 mg/kg/injection, vehicle: water) was 191 % of control, the T/C (dose: 20.0 mg/kg/injection, vehicle: water) was 229 % of control and the T/C (dose: 40.0 mg/kg/injection, vehicle: water) was 289 % of control.
In the case of `CN(C)c1ccc2c(NCCCCCCNc3ccnc4cc(N(C)C)ccc34)ccnc2c1`, the T/C (dose: 1.56 mg/kg/injection, vehicle: distilled water + alcohol) is reported as 94 % of control, the T/C (dose: 3.12 mg/kg/injection, vehicle: distilled water + alcohol) is reported as 92 % of control and the T/C (dose: 6.25 mg/kg/injection, vehicle: distilled water + alcohol) is reported as 106 % of control. For the same compound, the T/C (dose: 12.5 mg/kg/injection, vehicle: distilled water + alcohol) was 116 % of control and the T/C (dose: 25.0 mg/kg/injection, vehicle: distilled water + alcohol) was 112 % of control.
For `CCCCCCCCC(C)C(=O)N1CCCC1C(=O)N1C(CC(=O)CC)CC(C)CC1C(=O)NC(C)C(=O)NC(C)(C)C(=O)NC(C)(C)C(=O)NC(C(=O)NC(C)C(=O)NC(C)(C)C(=O)NC(C)(C)C(=O)NC(C)CN(C)CCO)C(C)CC` (stereo not given) (X2-P[X3]A[Aib][Aib]IA[Aib][Aib]-X4; configuration not given here), the T/C (dose: 0.15 mg/kg/injection, vehicle: Klucel (hydroxypropylcellulose) (HPC)) was 98 % of control, the T/C (dose: 0.31 mg/kg/injection, vehicle: Klucel (hydroxypropylcellulose) (HPC)) was 91 % of control and the T/C (dose: 0.62 mg/kg/injection, vehicle: Klucel (hydroxypropylcellulose) (HPC)) was 97 % of control. For the same compound, the T/C (dose: 1.25 mg/kg/injection, vehicle: Klucel (hydroxypropylcellulose) (HPC)) was 89 % of control, the T/C (dose: 2.5 mg/kg/injection, vehicle: Klucel (hydroxypropylcellulose) (HPC)) was 92 % of control and the T/C (dose: 5.0 mg/kg/injection, vehicle: Klucel (hydroxypropylcellulose) (HPC)) was 86 % of control.
`CC[C@]1(O)C[C@H]2CN(CCc3c([nH]c4ccccc34)[C@@](C(=O)OC)(c3cc4c(cc3OC)N(C)[C@H]3[C@@](O)(C(=O)OC)[C@H](OC(C)=O)[C@]5(CC)C=CCN6CC[C@]43[C@@H]65)C2)C1` was tested, and the T/C (dose: 0.12 mg/kg/injection, vehicle: saline) was 194 % of control, the T/C (dose: 0.12 mg/kg/injection, vehicle: water) was 161 % of control and the T/C (dose: 0.25 mg/kg/injection, vehicle: saline) was 234 % of control. The T/C (dose: 0.25 mg/kg/injection, vehicle: water) was 171 % of control and 199 % of control and 221 % of control, the T/C (dose: 0.5 mg/kg/injection, vehicle: saline) was 215 % of control and the T/C (dose: 0.5 mg/kg/injection, vehicle: water) was 176 % of control and 212 % of control and 309 % of control. For the same compound, the T/C (dose: 15.62 micrograms/kg/injection, vehicle: water) was 159 % of control, the T/C (dose: 31.25 micrograms/kg/injection, vehicle: water) was 154 % of control and the T/C (dose: 62.5 micrograms/kg/injection, vehicle: water) was 180 % of control. For the same compound, the T/C (dose: 125.0 micrograms/kg/injection, vehicle: water) was 206 % of control and the T/C (dose: 250.0 micrograms/kg/injection, vehicle: water) was 206 % of control.
In the case of `Cc1c2ccccc2c(C)c2c1cc(C(=O)O)c1ccccc12`, the T/C (dose: 25.0 mg/kg/injection, vehicle: sodium bicarbonate) is reported as 99 % of control, the T/C (dose: 50.0 mg/kg/injection, vehicle: sodium bicarbonate) is reported as 105 % of control and the T/C (dose: 100.0 mg/kg/injection, vehicle: sodium bicarbonate) is reported as 108 % of control. The T/C (dose: 200.0 mg/kg/injection, vehicle: sodium bicarbonate) was 109 % of control and the T/C (dose: 400.0 mg/kg/injection, vehicle: sodium bicarbonate) was 101 % of control.
For `COC1C(O)C(C)OC(OC2C(Oc3cccc4c(O)c5c(=O)oc6ccc(C)c7c(=O)oc(c34)c5c67)OC(C)C(O)C2O)C1O` (stereo not given), the T/C [1] was 170 % of control and the T/C [2] was 168 % of control.
In the case of `CCCC(NC(=O)OCc1ccccc1)C(=O)NC(Cc1ccccc1)C(=O)O` (stereo not given) (Cbz-[Nva]-Phe-OH; configuration not given here), the T/C [3] is reported as 101 % of control, the T/C [4] is reported as 104 % of control and the T/C (dose: 400.0 mg/kg/injection, vehicle: Klucel (hydroxypropylcellulose) (HPC)) is reported as 89 % of control.
`C=C(C)C(=O)OC1C/C(CO)=C\C(O)C/C(C)=C/C2OC(=O)C(=C)C21` (stereo not given) was tested, and the T/C (dose: 1.25 mg/kg/injection, vehicle: saline + alcohol) was 101 % of control, the T/C (dose: 2.5 mg/kg/injection, vehicle: saline + alcohol) was 100 % of control and the T/C (dose: 5.0 mg/kg/injection, vehicle: saline + alcohol) was 114 % of control. The T/C (dose: 10.0 mg/kg/injection, vehicle: saline + alcohol) was 112 % of control.
`CC1=C[S+](c2ccccc2)c2cccc3cc4ccccc4c1c23` (stereo not given) was tested, and the T/C (dose: 0.06 mg/kg/injection, vehicle: saline with Tween-80) was 106 % of control, the T/C (dose: 0.12 mg/kg/injection, vehicle: saline with Tween-80) was 103 % of control and the T/C (dose: 0.25 mg/kg/injection, vehicle: saline with Tween-80) was 115 % of control. For the same compound, the T/C (dose: 0.5 mg/kg/injection, vehicle: saline with Tween-80) was 100 % of control, the T/C (dose: 1.0 mg/kg/injection, vehicle: saline with Tween-80) was 111 % of control and the T/C (dose: 2.0 mg/kg/injection, vehicle: saline with Tween-80) was 112 % of control and 106 % of control.
With `NC(=O)CCC(N)C(=O)O` (stereo not given) the T/C [5] was 105 % of control, the T/C [6] was 108 % of control and the T/C [7] was 103 % of control. For the same compound, the T/C (dose: 200.0 mg/kg/injection, vehicle: saline) was 100 % of control and the T/C (dose: 400.0 mg/kg/injection, vehicle: saline) was 108 % of control.
For `CC(C)(C)OC(=O)NC(CCCCNC(=O)OCc1ccccc1)C(=O)O` (stereo not given), the T/C (dose: 25.0 mg/kg/injection, vehicle: distilled water + Tween-80 + alcohol) was 111 % of control and the T/C (dose: 50.0 mg/kg/injection, vehicle: distilled water + Tween-80 + alcohol) was 96 % of control.
With `[I][Hg][CH2]C1COC([CH2][Hg][I])CO1` (stereo not given) the T/C (dose: 3.12 mg/kg/injection, vehicle: saline with Tween-80) was 93 % of control, the T/C (dose: 3.12 mg/kg/injection, vehicle: saline) was 97 % of control and the T/C [8] was 109 % of control. For the same compound, the T/C [9] was 101 % of control, the T/C [10] was 113 % of control and the T/C [11] was 87 % of control. For the same compound, the T/C [1] was 119 % of control, the T/C [5] was 100 % of control and the T/C [2] was 106 % of control. The T/C [6] was 99 % of control and the T/C [7] was 96 % of control.
`O=C(Nc1ccccc1C(=O)O)c1cc([N+](=O)[O-])cc([N+](=O)[O-])c1` was tested, and the T/C [10] was 92 % of control, the T/C [1] was 100 % of control and the T/C [2] was 97 % of control. The T/C (dose: 100.0 mg/kg/injection, vehicle: saline with Tween-80) was 96 % of control.
For `CCCC(NC)C(CC)CN` (stereo not given), the T/C [11] was 93 % of control, the T/C [5] was 100 % of control and the T/C [6] was 110 % of control. For the same compound, the T/C [7] was 105 % of control.
`CC12C(=O)C=CCC1=CCC1C2CCC2(O)C(=O)OC3(C)C4CC5(C)C(COC16OC23C5C6=O)C(=O)O4` (stereo not given) was tested, and the T/C [3] was 93 % of control and the T/C [4] was 98 % of control.
In the case of `O=CC(S)CO` (stereo not given), the T/C [11] is reported as 107 % of control, the T/C [5] is reported as 111 % of control and the T/C [6] is reported as 123 % of control.
With `CCc1cc2c(cc1C(C)=O)C(C)(C)CCC2(C)C` the T/C [8] was 89 % of control, the T/C [10] was 95 % of control and the T/C [1] was 106 % of control.
`CCN=C=NCCCN(C)C` was tested, and the T/C [9] was 109 % of control and the T/C [11] was 114 % of control.
In the case of `O=NNc1ccc(Cl)cn1`, the T/C (dose: 1.56 mg/kg/injection, vehicle: water) is reported as 118 % of control, the T/C (dose: 3.13 mg/kg/injection, vehicle: water) is reported as 107 % of control and the T/C (dose: 6.25 mg/kg/injection, vehicle: water) is reported as 115 % of control. The T/C (dose: 12.5 mg/kg/injection, vehicle: water) was 166 % of control and 168 % of control.
